{"source": "patent US6369032B1", "about": "“Method for treating allergies” (Ortho-McNeil Pharmaceutical, Inc., priority 2000, dated 2002)", "key": {"[1]": {"system": "cathepsin S (degradation of invariant chain Ii)", "assay": "Monitoring cathepsin S inhibition in human blood: p10Ii fragment of invariant chain in PBMC by Western blot", "format": "cell-based", "conditions": "PBMC from human blood, incubation for 24 h, SDS-PAGE / Western blot", "protocol": "The effect of in vivo administration of cathepsin S inhibitors, in a clinical trial setting, can be monitored by measuring accumulation of an intermediate degradation product of invariant chain (Ii), i.e. the p10Ii fragment, in blood of dosed subjects. After administration of a cathepsin inhibitor for a certain period of time, for example, 0.01 to 50 mg/kg/day to result in a blood concentration of preferably 1 nM-10 μM for 16-30 h, blood is drawn and white blood cells are purified, e.g. either by lysis of red blood cells or by a Ficoll-Hypaque gradient centrifugation. Whole cell lysates of WBC are then made and analyzed by either a Western blot assay or an ELISA assay. For the Western blot assay, cell lysates are first resolved on SDS-PAGE gels. After transferring to nitrocellulose membranes, Ii and its intermediate degradation products, including the p10Ii, can be detected using a mouse mAb against Ii, e.g. Pin1.1, or rabbit polyclonal antibodies or a mouse monoclonal antibody specific for the p10Ii fragment or against the entire p10Ii fragment. For ELISA assay, a pair of antibodies against Ii, including Pin1.1, and a rabbit polyclonal antibody against C-terminal of p10Ii, can be used. The same assay can also be applied to monitor the effect of cathepsin S inhibitors in vivo in animal studies, for example in monkeys, dogs, pigs, rabbits, guinea pigs, and rodents. […]"}, "[2]": {"system": "HDM allergen-specific CD4 T cells", "assay": "Ex vivo human T cell proliferation assay, PBMC of allergic donors cultured with house dust mite extracts (3H-thymidine incorporation)", "format": "cell-based", "conditions": "PBMC from HDM-allergic donors, 7 days culture, titrated doses of LHVS; all four donors tested", "protocol": "(§1) Reagents. Glycerinated crude allergen extracts of house dust mites (Dermataphagoides pteronyssinus, Dermataphagoides farinae) and ragweed [Ambrosia trifida (giant), Ambrosia artemisiifolia (short)] were purchased from Hollister-Stier Laboratories (Minneapolis, Minn.). Concanavalin A (ConA) was purchased from Calbiochem (La Jolla, Calif.).\n(§2) Donors. All allergic donors were prescreened for their specific allergies using RAST tests. The HLA class II haplotypes of these donors were determined using PCR.\n(§3) Cell culture. Human peripheral blood mononuclear cells (PBMC) were purified from blood of allergic donors using Ficoll-Hypaque gradient followed by washes with phosphate buffered saline (PBS). PBMC were cultured in triplicate or duplicate at 0.5-1.0×10^6 cells/well with titrated doses of allergen extracts, in the presence or absence of a known cathepsin S inhibitor, LHVS (morpholinurea-leucine-homo-phenylalanine-vinylsulfonephenyl) (Palmer et al. (1995), J. Med. Chem. 38:3193 and Riese et al. (1996), Immunity 4:357). Serial diluted stock solutions of LHVS were first made in 100% DMSO and then diluted 1:15 in 40% Hydroxypropynyl cyclodextrin (HPCD). Three microliters of LHVS in HPCD was added into PBMC cultures (200 μL/well). […] Eighteen hours later, cells were harvested using a Filtermate Harvester (Packard) and counted for ^3H-TdR incorporation on Topcount (Packard). […]"}, "[3]": {"system": "T cells stimulated with ConA, a pan-T cell mitogen", "assay": "T cell proliferative responses induced by ConA (specificity control)", "format": "cell-based, human", "conditions": "PBMC from allergic donors", "from_the_text": "as §1\nCell culture. Human peripheral blood mononuclear cells (PBMC) were purified from blood of allergic donors using Ficoll-Hypaque gradient followed by washes with phosphate buffered saline (PBS). PBMC were cultured in triplicate or duplicate at 0.5-1.0×10^6 cells/well with titrated doses of allergen extracts, in the presence or absence of a known cathepsin S inhibitor, LHVS (morpholinurea-leucine-homo-phenylalanine-vinylsulfonephenyl) (Palmer et al. (1995), J. Med. Chem. 38:3193 and Riese et al. (1996), Immunity 4:357). Serial diluted stock solutions of LHVS were first made in 100% DMSO and then diluted 1:15 in 40% Hydroxypropynyl cyclodextrin (HPCD). Three microliters of LHVS in HPCD was added into PBMC cultures (200 μL/well). After 6 days of culture, 1 μCi/well of ^3H-thymidine (TdR) was added. Eighteen hours later, cells were harvested using a Filtermate Harvester (Packard) and counted for ^3H-TdR incorporation on Topcount (Packard). […]"}, "[4]": {"system": "ragweed allergen-specific CD4 T cells", "assay": "Ex vivo human T cell proliferation assay, PBMC of allergic donors cultured with ragweed extracts (3H-thymidine incorporation)", "format": "cell-based", "conditions": "PBMC from ragweed-allergic donors, 7 days culture, titrated doses of LHVS; two donors tested", "protocol": "as §1, §2, §3"}}}
{"compound": "CC(C)C[C@H](NC(=O)N1CCOCC1)C(=O)N[C@H](/C=C/S(=O)(=O)c1ccccc1)CCc1ccccc1", "note": "[LHVS, 4-morpholinecarboxamide, N-[(1S)-3-methyl-1-[[[(1S,2E)-1-(2-phenylethyl)-3-(phenylsulfonyl)-2-propenyl]amino]carbonyl]butyl]-]", "values": [{"measurement": "p10Ii fragment (block in the degradation of Ii)", "setting": "[1]", "value": "the p10Ii fragment was seen"}, {"measurement": "T cell proliferation induced by house dust mite extracts (Der p, Der f)", "setting": "[2]", "value": "strongly inhibited"}, {"measurement": "T cell proliferative responses induced by ConA", "setting": "[3]", "value": "not affected"}, {"measurement": "T cell proliferation induced by ragweed extracts (short and giant)", "setting": "[4]", "value": "strongly inhibited"}]}
